Laboratory results from the NIST ThermoML archive (doi:10.1021/acs.jced.8b00132).
Several values for one entry are separate records, joined by “and”; a condition that tells them apart may be missing. Equal entries are not always repeated.

Conditions: Liquid, transient hot wire

O=C(C(F)(F)C(F)(F)F)C(F)(C(F)(F)F)C(F)(F)F [dodecafluoro-2-methylpentan-3-one]
Conditions | thermal conductivity
212.68 K, 43023 kPa | 0.08262 W/m/K
212.69 K, 34811 kPa | 0.08103 W/m/K
212.7 K, 26854 kPa | 0.0791 W/m/K
212.7 K, 34796 kPa | 0.08096 W/m/K
212.71 K, 19432 kPa | 0.07795 W/m/K
212.71 K, 26846 kPa | 0.07958 W/m/K
212.72 K, 19443 kPa | 0.07837 W/m/K
212.73 K, 12670 kPa | 0.07626 W/m/K
212.73 K, 12671 kPa | 0.0764 W/m/K
212.75 K, 5793 kPa | 0.07492 W/m/K
212.75 K, 5801 kPa | 0.0748 W/m/K
212.77 K, 172 kPa | 0.07396 W/m/K
212.79 K, 181 kPa | 0.07378 W/m/K
213.1 K, 67106 kPa | 0.08599 W/m/K and 0.08628 W/m/K
213.11 K, 60772 kPa | 0.08539 W/m/K
213.11 K, 60780 kPa | 0.08539 W/m/K
213.13 K, 52081 kPa | 0.08389 W/m/K
213.13 K, 52089 kPa | 0.08383 W/m/K
213.19 K, 43027 kPa | 0.08245 W/m/K
213.19 K, 43036 kPa | 0.08268 W/m/K
213.21 K, 34805 kPa | 0.08073 W/m/K
213.21 K, 34810 kPa | 0.08114 W/m/K
213.23 K, 26845 kPa | 0.07947 W/m/K
213.24 K, 26846 kPa | 0.07959 W/m/K
213.25 K, 19430 kPa | 0.07775 W/m/K
213.25 K, 19435 kPa | 0.0774 W/m/K
213.27 K, 12661 kPa | 0.07617 W/m/K
213.28 K, 12679 kPa | 0.0761 W/m/K
213.31 K, 5806 kPa | 0.07469 W/m/K
213.31 K, 5813 kPa | 0.07468 W/m/K
213.33 K, 173 kPa | 0.07373 W/m/K
213.33 K, 180 kPa | 0.07364 W/m/K
213.62 K, 67087 kPa | 0.08645 W/m/K
213.63 K, 67097 kPa | 0.08628 W/m/K
213.64 K, 60766 kPa | 0.08543 W/m/K
213.65 K, 60770 kPa | 0.08553 W/m/K
213.67 K, 52073 kPa | 0.08388 W/m/K
213.67 K, 52074 kPa | 0.08401 W/m/K
213.74 K, 43029 kPa | 0.08234 W/m/K
213.75 K, 43019 kPa | 0.08232 W/m/K
241.26 K, 25699 kPa | 0.0759 W/m/K
241.27 K, 25696 kPa | 0.07599 W/m/K
241.32 K, 12027 kPa | 0.07227 W/m/K and 0.07234 W/m/K
241.33 K, 18761 kPa | 0.07423 W/m/K
241.33 K, 18763 kPa | 0.0739 W/m/K
241.38 K, 209 kPa | 0.06892 W/m/K and 0.06884 W/m/K
241.39 K, 5841 kPa | 0.07049 W/m/K
241.39 K, 5844 kPa | 0.07044 W/m/K
241.62 K, 33678 kPa | 0.07765 W/m/K
241.63 K, 33700 kPa | 0.07761 W/m/K
241.64 K, 41986 kPa | 0.0795 W/m/K
241.65 K, 41994 kPa | 0.07941 W/m/K
241.65 K, 50824 kPa | 0.0813 W/m/K
241.65 K, 50825 kPa | 0.08126 W/m/K
241.66 K, 60321 kPa | 0.08312 W/m/K
241.66 K, 60336 kPa | 0.08322 W/m/K
241.67 K, 25701 kPa | 0.07567 W/m/K
241.68 K, 25692 kPa | 0.0752 W/m/K
241.68 K, 68451 kPa | 0.08416 W/m/K
241.68 K, 68475 kPa | 0.0844 W/m/K
241.74 K, 18761 kPa | 0.07395 W/m/K
241.75 K, 12028 kPa | 0.07237 W/m/K
241.75 K, 18761 kPa | 0.07396 W/m/K
241.76 K, 12022 kPa | 0.07209 W/m/K
241.83 K, 210 kPa | 0.06806 W/m/K
241.83 K, 5847 kPa | 0.06983 W/m/K
241.84 K, 211 kPa | 0.06786 W/m/K
241.84 K, 5846 kPa | 0.07 W/m/K
242.08 K, 33680 kPa | 0.0771 W/m/K
242.08 K, 60313 kPa | 0.08307 W/m/K
242.09 K, 33695 kPa | 0.07709 W/m/K
242.09 K, 41985 kPa | 0.07857 W/m/K
242.09 K, 50804 kPa | 0.081 W/m/K
242.09 K, 50825 kPa | 0.08098 W/m/K
242.1 K, 41988 kPa | 0.07839 W/m/K
242.1 K, 60314 kPa | 0.08294 W/m/K
242.1 K, 68448 kPa | 0.08374 W/m/K
242.11 K, 68433 kPa | 0.08377 W/m/K
242.14 K, 25700 kPa | 0.07474 W/m/K
242.14 K, 25703 kPa | 0.07481 W/m/K
242.23 K, 18760 kPa | 0.07343 W/m/K
242.23 K, 18761 kPa | 0.07341 W/m/K
242.24 K, 12027 kPa | 0.07149 W/m/K
242.24 K, 12030 kPa | 0.07138 W/m/K
